pEC50, pIC50, pKi: −log10 of the molar value. One block for each compound: values may come before it. The source made the active and inactive calls. No cut-off for these calls is given here.
Legend:
[1] = target: T1, Glutamate receptor ionotropic, NMDA 2B (Homo sapiens, UniProt Q05586+Q13224); test: Displacement of [3H](E)-N1-(2-methoxybenzyl)cinnamamidine from human NR2B expressed in Ltk- cells; assay type: cell-based
Cytochrome P450 2C9 = Cytochrome P450 2C9 (Homo sapiens, UniProt P11712)
Description: Inhibition of CYP2C9 in human liver microsomes

Cytochrome P450 3A4 = Cytochrome P450 3A4 (Homo sapiens, UniProt P08684); test: Inhibition of CYP3A4 in human liver microsomes
Cytochrome P450 2D6 = Cytochrome P450 2D6 (Homo sapiens, UniProt P10635); test: Inhibition of CYP2D6 in human liver microsomes
[2] = Cmax in rhesus monkey at 1 mg/kg, po; assay type: ADME, organism-based, Macaca mulatta; set-up: dose 1 mg/kg, route oral; conditions: in vivo
[3] = Cmax in Sprague-Dawley rat at 10 mg/kg, po; assay type: ADME, organism-based; set-up: dose 10 mg/kg, route oral; conditions: in vivo
[4] = target: T1, Glutamate receptor ionotropic, NMDA 2B; test: Antagonist activity at human NR2B expressed in Ltk- cells by calcium flux assay; assay type: functional, cell-based
[5] = Ratio of drug level in brain against plasma in hyperalgesic rat
[6] = Half life in rhesus monkey at 1 mg/kg, iv; assay type: ADME, organism-based, Macaca mulatta; set-up: dose 1 mg/kg, route intravenous; conditions: in vivo
[7] = target: Glutamate receptor ionotropic, NMDA 2D (Homo sapiens) (UniProt O15399); test: Activity at human NR2D expressed in Ltk- cells by patch clamp assay upto 30 uM; assay type: cell-based
Rattus norvegicus [8] = test: […] in rat measured as motor impairment upto 100 mg/kg, po by rotarod assay; assay type: functional, organism-based; set-up: dose 100 mg/kg
Rhesus monkey = test: AUC in rhesus monkey at 1 mg/kg, iv; assay type: ADME, organism-based, Macaca mulatta, Plasma; set-up: dose 1 mg/kg, route intravenous; conditions: in vivo
Canis familiaris [9] = test: AUC in Beagle dog at 1 mg/kg, iv; assay type: ADME, organism-based, Canis lupus familiaris, Plasma; set-up: dose 1 mg/kg, route intravenous; conditions: in vivo
[10] = Oral bioavailability in rhesus monkey at 1 mg/kg, po; assay type: ADME, organism-based, Macaca mulatta; conditions: in vivo
Rattus norvegicus [11] = test: Reversal of carrageenan-induced mechanical hyperalgesia in rat at 3 mg/kg, po in presence of morphine; assay type: functional, organism-based; set-up: dose 3 mg/kg
Rattus norvegicus [12] = test: Reversal of carrageenan-induced mechanical hyperalgesia in rat at 3 mg/kg, po in presence of indomethacin; assay type: functional, organism-based; set-up: dose 3 mg/kg
[13] = Half life in Sprague-Dawley rat at 2 mg/kg, iv; assay type: ADME, organism-based; set-up: dose 2 mg/kg, route intravenous; conditions: in vivo
[14] = target: Glutamate receptor ionotropic, NMDA 2C (Homo sapiens) (UniProt Q14957); test: Activity at human NR2C expressed in Ltk- cells by patch clamp assay upto 30 uM; assay type: cell-based
Rattus norvegicus [15] = test: Reversal of allodynia in rat spinal nerve ligation model at 10 mg/kg, iv; assay type: functional, organism-based; set-up: dose 10 mg/kg
Rattus norvegicus [16] = test: Reversal of carrageenan-induced mechanical hyperalgesia in rat at 10 mg/kg, po after 1 hr; assay type: functional
Ltk- = test: Activity at human NR1a expressed in Ltk- cells by patch clamp assay upto 30 uM; assay type: cell-based
[17] = Drug level in hyperalgesic rat plasma at 1 mg/kg, po after 15 mins; assay type: ADME, organism-based; set-up: dose 1 mg/kg, route oral
[18] = Drug level in hyperalgesic rat plasma at 10 mg/kg, po after 1 hr; assay type: ADME, organism-based; set-up: dose 10 mg/kg, route oral
Rattus norvegicus [19] = test: Effect on allodynia in rat spinal nerve ligation model at 30 mg/kg, po; assay type: functional, organism-based; set-up: dose 30 mg/kg
[20] = Drug level in hyperalgesic rat brain at 10 mg/kg, po after 1 hr; assay type: ADME, organism-based; set-up: dose 10 mg/kg, route oral; conditions: read-out: Drug uptake
[21] = Oral bioavailability in Beagle dog at 1 mg/kg, po; assay type: ADME, organism-based, Canis lupus familiaris; conditions: in vivo
Rattus norvegicus [22] = test: Reversal of carrageenan-induced mechanical hyperalgesia in iv dosed rat after 15 mins; assay type: functional
Rattus norvegicus [23] = test: AUC in Sprague-Dawley rat at 2 mg/kg, iv; assay type: ADME, organism-based, Plasma; set-up: dose 2 mg/kg, route intravenous; conditions: in vivo
[24] = target: Glutamate receptor ionotropic, NMDA 2B (Rattus norvegicus) (UniProt Q00960); test: Receptor occupancy ex vivo by displacement of [3H](E)-N1-(2-methoxybenzyl)-cinnamamidine binding from NR2B in rat brain at 10 uM; assay type: tissue-based
[25] = Oral bioavailability in Sprague-Dawley rat at 10 mg/kg, po; assay type: ADME, organism-based; conditions: in vivo
[26] = Plasma protein binding in rat; assay type: ADME, cell-free; conditions: read-out: PPB (converted)
Rattus norvegicus [27] = test: Reversal of allodynia in rat spinal nerve ligation model at 3 mg/kg, iv; assay type: functional, organism-based; set-up: dose 3 mg/kg
[28] = target: Glutamate receptor ionotropic, NMDA 2A (Homo sapiens) (UniProt Q12879); test: Activity at human NR2A expressed in Ltk- cells by patch clamp assay upto 30 uM; assay type: cell-based
Rattus norvegicus [29] = test: Plasma concentration in haloperidol-induced cataleptic rat at 30 mg/kg, po; assay type: ADME, organism-based; set-up: dose 30 mg/kg, route oral; conditions: in vivo
[30] = Drug level in hyperalgesic rat brain at 1 mg/kg, po after 15 mins; assay type: ADME, organism-based; set-up: dose 1 mg/kg, route oral; conditions: read-out: Drug uptake
[31] = Half life in Beagle dog at 1 mg/kg, iv; assay type: ADME, organism-based, Canis lupus familiaris; set-up: dose 1 mg/kg, route intravenous; conditions: in vivo
[32] = Cmax in Beagle dog at 1 mg/kg, po; assay type: ADME, organism-based, Canis lupus familiaris; set-up: dose 1 mg/kg, route oral; conditions: in vivo
[33] = target: Glutamate receptor ionotropic, NMDA 2A (Homo sapiens, UniProt Q05586+Q12879); test: Activity at human NR2A expressed in Ltk- cells by calcium flux assay; assay type: cell-based
[34] = target: Voltage-gated inwardly rectifying potassium channel KCNH2 (Homo sapiens, UniProt Q12809)
Description: Displacement of [35S]MK-499 from hERG potassium channel expressed in HEK293 cells

[35] = Plasma concentration in rat at 30 mg/kg, po after 1 hr; assay type: ADME, organism-based; set-up: dose 30 mg/kg, route oral
[36] = Drug level in rat brain at 30 mg/kg, po after 1 hr; assay type: ADME, organism-based; set-up: dose 30 mg/kg, route oral; conditions: read-out: Drug uptake
Rattus norvegicus [37] = test: Reversal of carrageenan-induced mechanical hyperalgesia in iv dosed rat; assay type: functional
Rattus norvegicus [38] = test: Reversal of carrageenan-induced mechanical hyperalgesia in po dosed rat; assay type: functional
Canis familiaris [39] = test: AUC in Beagle dog at 0.5 mg/kg, iv; assay type: ADME, organism-based, Canis lupus familiaris, Plasma; set-up: dose 0.5 mg/kg, route intravenous; conditions: in vivo
[40] = Half life in Beagle dog at 0.5 mg/kg, iv; assay type: ADME, organism-based, Canis lupus familiaris; set-up: dose 0.5 mg/kg, route intravenous; conditions: in vivo
Homo sapiens = organism: Homo sapiens; test: Selectivity for human NR2B over hERG

Sequence of Cytochrome P450 2D6 (P10635 whole entry): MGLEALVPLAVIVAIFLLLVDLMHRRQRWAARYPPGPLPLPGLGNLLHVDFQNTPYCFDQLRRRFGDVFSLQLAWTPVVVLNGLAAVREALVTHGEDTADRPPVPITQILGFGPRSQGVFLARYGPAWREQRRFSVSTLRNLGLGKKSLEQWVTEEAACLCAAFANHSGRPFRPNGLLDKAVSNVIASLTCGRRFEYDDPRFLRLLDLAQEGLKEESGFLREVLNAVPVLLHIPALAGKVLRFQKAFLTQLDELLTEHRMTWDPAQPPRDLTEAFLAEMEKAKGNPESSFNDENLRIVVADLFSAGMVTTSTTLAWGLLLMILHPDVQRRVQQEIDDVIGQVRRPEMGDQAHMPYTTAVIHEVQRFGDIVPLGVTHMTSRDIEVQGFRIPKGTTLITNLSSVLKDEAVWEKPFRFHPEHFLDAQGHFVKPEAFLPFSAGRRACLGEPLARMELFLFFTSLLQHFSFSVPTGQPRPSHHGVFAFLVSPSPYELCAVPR
Sequence of Cytochrome P450 2C9 (P11712 whole entry): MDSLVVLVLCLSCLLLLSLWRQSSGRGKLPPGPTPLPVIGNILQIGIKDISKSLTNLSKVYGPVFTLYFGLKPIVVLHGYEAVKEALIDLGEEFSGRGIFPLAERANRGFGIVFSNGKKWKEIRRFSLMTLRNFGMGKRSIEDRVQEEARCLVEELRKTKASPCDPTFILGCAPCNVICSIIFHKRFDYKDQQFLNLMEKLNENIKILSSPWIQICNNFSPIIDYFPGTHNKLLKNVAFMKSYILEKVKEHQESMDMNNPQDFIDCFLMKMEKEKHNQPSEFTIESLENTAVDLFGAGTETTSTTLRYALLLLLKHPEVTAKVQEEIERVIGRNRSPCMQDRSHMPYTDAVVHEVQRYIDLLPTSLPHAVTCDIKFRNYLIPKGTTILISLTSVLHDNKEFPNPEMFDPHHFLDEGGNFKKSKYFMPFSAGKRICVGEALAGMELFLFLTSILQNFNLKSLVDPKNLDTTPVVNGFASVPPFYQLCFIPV
Sequence of Cytochrome P450 3A4 (P08684 whole entry): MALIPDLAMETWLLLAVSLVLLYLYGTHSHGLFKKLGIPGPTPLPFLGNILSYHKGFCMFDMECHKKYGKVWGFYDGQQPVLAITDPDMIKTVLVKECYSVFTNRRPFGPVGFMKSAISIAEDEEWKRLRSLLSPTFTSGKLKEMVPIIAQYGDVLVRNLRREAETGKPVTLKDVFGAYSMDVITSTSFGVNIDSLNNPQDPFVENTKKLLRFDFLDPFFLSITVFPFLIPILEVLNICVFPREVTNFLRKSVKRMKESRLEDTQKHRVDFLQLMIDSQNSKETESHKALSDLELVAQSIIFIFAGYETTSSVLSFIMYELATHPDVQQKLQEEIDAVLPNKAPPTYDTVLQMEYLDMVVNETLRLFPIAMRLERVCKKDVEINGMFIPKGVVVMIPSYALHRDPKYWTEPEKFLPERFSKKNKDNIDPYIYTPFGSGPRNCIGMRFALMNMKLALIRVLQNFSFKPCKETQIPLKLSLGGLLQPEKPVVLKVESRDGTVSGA
T1 sequence (Q13224 whole entry, one chain of several): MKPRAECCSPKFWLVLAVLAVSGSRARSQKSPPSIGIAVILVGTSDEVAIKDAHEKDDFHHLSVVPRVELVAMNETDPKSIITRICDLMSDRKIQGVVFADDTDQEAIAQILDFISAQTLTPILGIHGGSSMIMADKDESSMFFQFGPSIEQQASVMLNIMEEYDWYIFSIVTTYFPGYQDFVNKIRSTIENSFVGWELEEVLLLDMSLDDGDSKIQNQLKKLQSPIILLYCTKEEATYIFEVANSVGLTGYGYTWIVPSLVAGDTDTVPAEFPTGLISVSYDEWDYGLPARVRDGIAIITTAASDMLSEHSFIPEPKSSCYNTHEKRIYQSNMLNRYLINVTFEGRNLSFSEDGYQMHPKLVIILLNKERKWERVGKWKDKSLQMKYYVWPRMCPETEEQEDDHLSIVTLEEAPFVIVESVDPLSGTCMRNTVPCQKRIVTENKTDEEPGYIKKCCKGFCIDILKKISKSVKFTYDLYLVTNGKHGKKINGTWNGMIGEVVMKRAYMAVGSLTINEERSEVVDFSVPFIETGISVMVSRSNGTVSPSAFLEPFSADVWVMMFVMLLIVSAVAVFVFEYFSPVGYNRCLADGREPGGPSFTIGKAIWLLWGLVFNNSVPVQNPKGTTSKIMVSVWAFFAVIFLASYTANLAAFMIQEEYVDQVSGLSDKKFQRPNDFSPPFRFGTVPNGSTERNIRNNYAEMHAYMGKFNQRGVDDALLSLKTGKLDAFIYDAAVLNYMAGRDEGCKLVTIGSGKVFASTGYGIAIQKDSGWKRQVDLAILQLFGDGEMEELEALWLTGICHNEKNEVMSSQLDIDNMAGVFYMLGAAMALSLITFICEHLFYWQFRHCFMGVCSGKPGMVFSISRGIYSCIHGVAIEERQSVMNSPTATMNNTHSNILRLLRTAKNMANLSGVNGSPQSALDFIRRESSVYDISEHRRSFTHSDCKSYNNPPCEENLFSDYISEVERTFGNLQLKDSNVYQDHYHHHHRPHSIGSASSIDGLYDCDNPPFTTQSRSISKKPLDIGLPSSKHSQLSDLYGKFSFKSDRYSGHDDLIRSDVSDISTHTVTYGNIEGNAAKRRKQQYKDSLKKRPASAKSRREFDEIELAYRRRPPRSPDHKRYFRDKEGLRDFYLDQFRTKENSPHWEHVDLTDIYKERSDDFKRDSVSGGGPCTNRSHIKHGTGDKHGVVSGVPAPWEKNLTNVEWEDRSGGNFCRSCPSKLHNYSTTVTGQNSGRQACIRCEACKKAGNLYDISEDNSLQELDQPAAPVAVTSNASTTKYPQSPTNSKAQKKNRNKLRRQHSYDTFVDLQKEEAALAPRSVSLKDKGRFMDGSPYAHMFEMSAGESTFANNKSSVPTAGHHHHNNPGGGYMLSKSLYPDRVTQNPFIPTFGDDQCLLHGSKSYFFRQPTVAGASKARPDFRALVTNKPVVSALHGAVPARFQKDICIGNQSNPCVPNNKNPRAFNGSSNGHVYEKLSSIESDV
Sequence of Glutamate receptor ionotropic, NMDA 2A (Q12879 whole entry, one chain of several): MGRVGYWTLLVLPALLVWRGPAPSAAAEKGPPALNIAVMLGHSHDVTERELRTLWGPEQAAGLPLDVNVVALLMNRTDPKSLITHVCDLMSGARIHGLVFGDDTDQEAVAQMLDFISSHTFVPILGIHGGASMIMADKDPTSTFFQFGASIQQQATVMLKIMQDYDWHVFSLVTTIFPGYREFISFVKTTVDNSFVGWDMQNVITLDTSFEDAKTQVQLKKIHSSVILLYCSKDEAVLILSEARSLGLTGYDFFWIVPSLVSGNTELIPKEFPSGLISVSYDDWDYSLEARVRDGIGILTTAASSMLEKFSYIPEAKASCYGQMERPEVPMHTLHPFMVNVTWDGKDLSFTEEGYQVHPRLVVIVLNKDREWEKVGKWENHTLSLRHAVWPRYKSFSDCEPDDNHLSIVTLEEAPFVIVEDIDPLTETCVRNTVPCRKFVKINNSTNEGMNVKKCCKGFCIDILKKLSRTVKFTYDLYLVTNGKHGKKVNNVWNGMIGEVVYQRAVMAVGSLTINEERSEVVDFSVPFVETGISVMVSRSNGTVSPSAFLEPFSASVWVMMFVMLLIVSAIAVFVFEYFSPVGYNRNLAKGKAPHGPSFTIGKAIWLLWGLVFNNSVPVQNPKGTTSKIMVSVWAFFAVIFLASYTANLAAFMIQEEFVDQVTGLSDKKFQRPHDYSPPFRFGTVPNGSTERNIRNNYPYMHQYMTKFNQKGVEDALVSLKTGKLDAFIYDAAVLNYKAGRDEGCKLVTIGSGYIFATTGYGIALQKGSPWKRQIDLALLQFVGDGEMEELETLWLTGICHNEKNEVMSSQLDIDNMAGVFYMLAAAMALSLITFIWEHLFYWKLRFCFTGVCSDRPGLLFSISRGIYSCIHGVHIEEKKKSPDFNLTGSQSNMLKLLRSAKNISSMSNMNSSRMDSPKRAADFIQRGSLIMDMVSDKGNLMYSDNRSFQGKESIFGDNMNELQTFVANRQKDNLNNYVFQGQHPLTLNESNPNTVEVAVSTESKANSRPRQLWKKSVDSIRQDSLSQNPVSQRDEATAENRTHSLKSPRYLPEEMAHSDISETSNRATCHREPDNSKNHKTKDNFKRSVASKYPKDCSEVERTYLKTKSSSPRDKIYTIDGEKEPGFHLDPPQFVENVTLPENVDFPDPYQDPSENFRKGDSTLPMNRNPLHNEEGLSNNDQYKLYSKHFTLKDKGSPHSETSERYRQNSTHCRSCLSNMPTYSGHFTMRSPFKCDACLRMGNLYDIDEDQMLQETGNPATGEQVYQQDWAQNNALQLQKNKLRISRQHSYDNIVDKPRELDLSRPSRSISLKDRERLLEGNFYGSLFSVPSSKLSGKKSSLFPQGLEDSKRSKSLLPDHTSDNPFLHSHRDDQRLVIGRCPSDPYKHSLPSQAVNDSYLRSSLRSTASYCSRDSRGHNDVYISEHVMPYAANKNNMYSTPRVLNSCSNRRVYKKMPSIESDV

pKi [1]: 7.85 | pIC50 (Cytochrome P450 2C9): 4.92 | pIC50 (Cytochrome P450 3A4): 4.66 | pIC50 (Cytochrome P450 2D6): 5.77
SMILES: O=C(OCc1ccccc1)N1CCC(CNc2cnccn2)CC1

pKi [1]: 6.51
SMILES: O=C(CCc1ccccc1)N1CCC(CNc2ncccn2)CC1

pKi [1]: 8.43
SMILES: CCc1ccc(COC(=O)N2CCC(CNc3ncccn3)CC2)cc1

pKi [1]: 8.11
SMILES: CC(C)c1ccc(COC(=O)N2CCC(CNc3ncccn3)CC2)cc1

pKi [1]: 6.69
SMILES: Cc1cccc(COC(=O)N2CCC(CNc3ncccn3)CC2)c1

pKi [1]: 5.93
SMILES: O=C(NCc1ccccc1)N1CCC(CNc2ncccn2)CC1

pKi [1]: 7.74
SMILES: O=C(OCc1ccc(F)cc1)N1CCC(CNc2ncccn2)CC1

pKi [1]: 5.13
SMILES: Cc1ccc(COC(=O)N2CCC(COc3ncccn3)CC2)cc1

pKi [1]: 6.91 | pIC50 (Cytochrome P450 2C9): < 5.00 | pIC50 (Cytochrome P450 3A4): < 5.00 | pIC50 (Cytochrome P450 2D6): < 5.00
SMILES: O=C(OCc1ccccc1)N1CCC(CNc2nccs2)CC1

pKi [1]: 6.58
SMILES: c1ccc(CCCN2CCC(CNc3ncccn3)CC2)cc1

SMILES: Cc1ccc(COC(=O)N2CCC(CNc3ncccn3)CC2)cc1
Cmax [2]: 600 nM | Cmax [3]: 3900 nM | pEC50 [4]: 8.25 | Kp [5]: 1.4 | pKi [1]: 8.47 | half-life [6]: 2.2 h | Activity [7]: < 30% | Activity (Rattus norvegicus [8]): inactive | AUC (Rhesus monkey): 5.2 µM·h | AUC (Canis familiaris [9]): 7.5 µM·h | bioavailability [10]: 26% | Activity (Rattus norvegicus [11]): Active | Activity (Rattus norvegicus [12]): Active | half-life [13]: 2.7 h | Activity [14]: < 30% | Activity (Rattus norvegicus [15]): Active | Activity (Rattus norvegicus [16]): 50% | Activity (Ltk-): < 30% | concentration at […] [17]: 960 nM | concentration at 1 h [18]: 1800 nM | Activity (Rattus norvegicus [19]): Active | concentration at 1 h [20]: 850 nM | bioavailability [21]: 24% | ED50 (Rattus norvegicus [22]): 1 mg/kg | AUC (Rattus norvegicus [23]): 7.1 µM·h | Activity [24]: Active | bioavailability [25]: 45% | fraction unbound [26]: 0.153 | Activity (Rattus norvegicus [27]): Active | Activity [28]: < 30% | concentration (Rattus norvegicus [29]): 10200 nM | concentration at […] [30]: 510 nM | half-life [31]: 6.9 h | Cmax [32]: 840 nM

pIC50 [4]: 6.99 | pIC50 [33]: < 4.70 | pKi [1]: 7.03
SMILES: c1ccc(COc2ccc(CCNc3ccncc3)cc2)cc1
pIC50 [34]: 6.89

SMILES: O=C(OCc1cccc(F)c1)N1CCC(CNc2ncccn2)CC1
pKi [1]: 6.82

pKi [1]: 6.64
SMILES: Cc1ccccc1COC(=O)N1CCC(CNc2ncccn2)CC1

pKi [1]: 5.68
SMILES: Cc1ccc(COC(=O)N2CCC(CN(C)c3ncccn3)CC2)cc1

concentration at 1 h [35]: 180 nM | pKi [1]: 7.43 | concentration at 1 h [36]: 170 nM | pIC50 (Cytochrome P450 2C9): < 4.60 | pIC50 (Cytochrome P450 3A4): < 4.60 | pIC50 (Cytochrome P450 2D6): < 4.60
SMILES: O=C(OCc1ccccc1)N1CCC(CNc2ccccn2)CC1

SMILES: O=C(OCc1ccccc1)N1CCC(CNc2ccncn2)CC1
concentration at 1 h [35]: 1100 nM | pKi [1]: 7.12 | concentration at 1 h [36]: 700 nM | pIC50 (Cytochrome P450 2C9): 6.30 | pIC50 (Cytochrome P450 2D6): 5.89

pKi [1]: 5.51
SMILES: N#CN=C(NCc1ccccc1)NN1CCC(CNc2ncccn2)CC1

pKi [1]: 6.14
SMILES: CC(C)(C)c1ccc(COC(=O)N2CCC(CNc3ncccn3)CC2)cc1

pKi [1]: 6.72 | pIC50 (Cytochrome P450 2D6): < 4.60
SMILES: O=C(OCc1ccccc1)N1CCC(CNc2nncs2)CC1

pKi [1]: 6.74 | pIC50 (Cytochrome P450 2C9): 4.92 | pIC50 (Cytochrome P450 3A4): 5.04 | pIC50 (Cytochrome P450 2D6): 5.77
SMILES: O=C(OCc1ccccc1)N1CCC(CNc2cccnc2)CC1

concentration at 1 h [35]: 7200 nM | pKi [1]: 7.64 | concentration at 1 h [36]: 3100 nM | pIC50 (Cytochrome P450 2C9): < 4.60 | pIC50 (Cytochrome P450 3A4): < 4.60 | pIC50 (Cytochrome P450 2D6): < 4.60
SMILES: O=C(OCc1ccccc1)N1CCC(CNc2ncccn2)CC1

pKi [1]: 7.74
SMILES: O=C(OCc1ccccc1F)N1CCC(CNc2ncccn2)CC1

SMILES: Cc1ccc(COC(=O)N2CCC(Nc3ncccn3)CC2)cc1
pKi [1]: < 4.82

pKi [1]: 6.66
SMILES: O=C(OCc1ccccc1)N1CCC(Cc2nc3ccccc3[nH]2)CC1

concentration at 1 h [35]: 8100 nM | Cmax [3]: 5200 nM | pEC50 [4]: 8.80 | pEC50 [33]: < 5.00 | pKi [1]: 7.97 | concentration at 1 h [36]: 11000 nM | half-life [13]: 1.4 h | pIC50 (Cytochrome P450 2C9): 5.19 | bioavailability [21]: 11% | AUC (Rattus norvegicus [23]): 1.9 µM·h | bioavailability [25]: > 100% | AUC (Canis familiaris [39]): 1.7 µM·h | pIC50 (Cytochrome P450 3A4): < 4.60 | pIC50 (Cytochrome P450 2D6): 4.82 | half-life [40]: 6.5 h | Cmax [32]: 50 nM
SMILES: O=C(OCc1ccccc1)N1CCC(CNc2ccncc2)CC1
ED50 (Rattus norvegicus [37]): 3 mg/kg | ED50 (Rattus norvegicus [38]): 10 mg/kg | Selectivity ratio (Homo sapiens): 90

pKi [1]: 6.64
SMILES: O=C(OCCc1ccccc1)N1CCC(CNc2ncccn2)CC1

pKi [1]: 6.34
SMILES: COc1ccc(COC(=O)N2CCC(CNc3ncccn3)CC2)cc1

pKi [1]: 6.27
SMILES: CC(OC(=O)N1CCC(CNc2ncccn2)CC1)c1ccccc1 (racemic)

pKi [1]: 7.64
SMILES: O=C(OC1Cc2ccccc2C1)N1CCC(CNc2ncccn2)CC1
